Reference: EP4417602A1, “SUBSTITUTED PYRAZOLE CARBOXAMIDES, SALTS THEREOF AND THEIR USE AS HERBICIDALLY ACTIVE SUBSTANCES” (Bayer AG, priority 2023, dated 2024)

Legend:
STEME [1] = assay: A. Herbicidal pre-emergence action on harmful plants (Tables A); assay type: in vivo, Stellaria media; details: visual grading after ca. 3 weeks vs untreated controls, 100% = plants have died off, 0% = as control plants
Outline: (§1)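 Greenhouse pre-emergence test: compound applied to the soil surface at 1280 g/ha or below, and herbicidal effect rated visually at ca. 3 weeks on a 0–100% scale against untreated plants.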

SETVI [2] = assay: as above; assay type: in vivo, Setaria viridis; details: visual grading after ca. 3 weeks vs untreated controls, 100% = plants have died off, 0% = as control plants
Outline: as §1

ECHCG [3] = assay: as above; assay type: in vivo, Echinochloa crus-galli; details: visual grading after ca. 3 weeks vs untreated controls, 100% = plants have died off, 0% = as control plants
Outline: as §1

STEME [4] = assay: B. Herbicidal post-emergence action on harmful plants (Tables B); assay type: in vivo, Stellaria media; details: application rate 1280 g/ha; Table B6
Description: (§2) Seeds of mono- and dicotyledonous weed plants were placed in plastic pots in sandy loam soil (doubly sown with in each case one species of mono- or dicotyledonous weed plants per pot), covered with soil and cultivated in a greenhouse under controlled growth conditions. 2 to 3 weeks after sowing, the test plants were treated at the one-leaf stage. The compounds of the invention, formulated in the form of wettable powders (WP) or as emulsion concentrates (EC), were applied onto the green parts of the plants as aqueous suspension or emulsion with addition of 0.5% additive at a water application rate of 600 liters per hectare (converted). After the test plants had been kept in the greenhouse under optimum growth conditions for about 3 weeks, the activity of the preparations was rated visually in comparison to untreated controls. For example, 100% activity = the plants have died, 0% activity = like control plants. Tables B1 to B12, below, show the effects of selected compounds of the general formula (I) according to table 1 on various harmful plants and an application rate corresponding to 1280 g/ha or below obtained by the experimental procedure mentioned above. Table B1a: post-emergence activity at 1280g/ha against ABUTH in %

VERPE [5] = assay: as above; assay type: in vivo, Veronica persica
Outline: (§3)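 Activity was scored visually as % damage (100% = dead, 0% = like untreated) about 3 weeks after treatment. Plants at the one-leaf stage, 2-3 weeks old, were sprayed with WP/EC formulations plus 0.5% additive (600 L/ha water, up to 1280 g/ha). Plants were grown in sandy loam in a greenhouse.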

DIGSA [6] = assay: as above; assay type: in vivo, Digitaria sanguinalis; details: application rate 1280 g/ha; Table B12a
Description: as §2

DIGSA [7] = assay: A. Herbicidal pre-emergence action on harmful plants (Tables A); assay type: in vivo, Digitaria sanguinalis
Outline: as §1

VERPE [8] = assay: as above; assay type: in vivo, Veronica persica; details: application rate 1280 g/ha; Table A11
Description: Seeds of mono- and dicotyledonous weed plants were sown in plastic pots (double sowings with one species of mono- and one species of dicotyledonous weed plants per pot), in sandy loam, and covered with soil. The compounds according to the invention, formulated in the form of wettable powders (WP) or as emulsifiable concentrates (EC), were applied to the surface of the covering soil as aqueous suspension or emulsion, with the addition of 0.5% of an additive, at an application rate of 6001 of water per hectare (converted). Following treatment, the pots were placed in a greenhouse and kept under optimum growth conditions for the test plants. The visual grading of the damage to the test plants was carried out after ca. 3 weeks in comparison to untreated controls (herbicidal effect in percent (%): 100% effect = plants have died off, 0% effect = as control plants). Tables A1 to A12, below, show the effects of selected compounds of the general formula (I) according to table 1 on various harmful plants and an application rate corresponding to 1280 g/ha or below obtained by the experimental procedure mentioned above. Table A1: pre-emergence activity at 1280g/ha against ABUTH in %

POAAN [9] = assay: as above; assay type: in vivo, Poa annua
Outline: as §1

LOLRI = assay: as above; assay type: in vivo, Lolium rigidum; details: visual grading after ca. 3 weeks vs untreated controls, 100% = plants have died off, 0% = as control plants
Outline: as §1

MATIN [10] = assay: as above; assay type: in vivo, Matricaria inodora; details: visual grading after ca. 3 weeks vs untreated controls, 100% = plants have died off, 0% = as control plants
Outline: as §1

AMARE = assay: as above; assay type: in vivo, Amaranthus retroflexus
Outline: as §1

SETVI [11] = assay: B. Herbicidal post-emergence action on harmful plants (Tables B); assay type: in vivo, Setaria viridis; details: application rate 1280 g/ha; Table B5
Description: as §2

ABUTH = assay: as above; assay type: in vivo, Abutilon theophrasti
Description: as §2

ECHCG [12] = assay: as above; assay type: in vivo, Echinochloa crus-galli
Outline: as §3

ALOMY = assay: A. Herbicidal pre-emergence action on harmful plants (Tables A); assay type: in vivo, Alopecurus myosuroides
Outline: as §1

MATIN [13] = assay: B. Herbicidal post-emergence action on harmful plants (Tables B); assay type: in vivo, Matricaria inodora
Outline: as §3

POAAN [14] = assay: as above; assay type: in vivo, Poa annua
Outline: as §3

[15] = application rate 1280 g/ha, Table B11a
[16] = application rate 320 g/ha, Table A12b
[17] = application rate 1280 g/ha, Table A12a
[18] = application rate 80 g/ha, Table A7c
[19] = application rate 320 g/ha, Table A7b
[20] = application rate 1280 g/ha, visual grading after ca. 3 weeks vs untreated controls, 100% = plants have died off, 0% = as control plants
[21] = application rate 1280 g/ha, Table B1a
[22] = application rate 1280 g/ha, Table B2a
[23] = application rate 320 g/ha, Table A9b
[24] = application rate 1280 g/ha, Table A9a
[25] = application rate 320 g/ha, Table B4b
[26] = application rate 1280 g/ha, Table B4a
[27] = application rate 320 g/ha, Table B7b
[28] = application rate 1280 g/ha, Table B7a

Row | Structure (SMILES) | pre-emergence activity against STEME (STEME [1]; application rate 80 g/ha) | pre-emergence activity against STEME (STEME [1]; application rate 320 g/ha) | pre-emergence activity against STEME (STEME [1]; application rate 1280 g/ha) | pre-emergence activity against SETVI (SETVI [2]; application rate 320 g/ha) | pre-emergence activity against SETVI (SETVI [2]; application rate 1280 g/ha) | pre-emergence activity against ECHCG (ECHCG [3]; application rate 80 g/ha) | pre-emergence activity against ECHCG (ECHCG [3]; application rate 320 g/ha) | pre-emergence activity against ECHCG (ECHCG [3]; application rate 1280 g/ha) | post-emergence activity against VERPE (VERPE [5]; [15]) | post-emergence activity against DIGSA (DIGSA [6]) | pre-emergence activity against DIGSA (DIGSA [7]; [16]) | pre-emergence activity against DIGSA (DIGSA [7]; [17]) | pre-emergence activity against VERPE (VERPE [8]) | pre-emergence activity against POAAN (POAAN [9]; [18]) | pre-emergence activity against POAAN (POAAN [9]; [19]) | pre-emergence activity against POAAN (POAAN [9]; [20]) | pre-emergence activity against LOLRI (LOLRI; application rate 320 g/ha) | pre-emergence activity against LOLRI (LOLRI; application rate 1280 g/ha) | pre-emergence activity against MATIN (MATIN [10]; application rate 320 g/ha) | pre-emergence activity against MATIN (MATIN [10]; application rate 1280 g/ha) | other results
1 | COCc1nn(C)cc1C(=O)N1CCCC1Cc1c(F)cccc1F (single isomer, unassigned) [Example I-082] | 90% | 90% | 90% | 100% | 100% | 90% | 90% | 100% | 90% | 90% | 100% | 100% | 90% | 100% | 100% | 100% | 100% | 100% | 90% | 90% | pre-emergence activity against SETVI (SETVI [2]; application rate 80 g/ha): 90%; post-emergence activity against STEME (STEME [4]): 90%; post-emergence activity against VERPE (VERPE [5]; application rate 320 g/ha, Table B11b): 90%; pre-emergence activity against DIGSA (DIGSA [7]; application rate 80 g/ha, Table A12c): 100%; pre-emergence activity against LOLRI (LOLRI; application rate 80 g/ha): 90%; pre-emergence activity against MATIN (MATIN [10]; application rate 80 g/ha): 90%; pre-emergence activity against AMARE (AMARE; application rate 320 g/ha, Table A8b): 90%; pre-emergence activity against AMARE (AMARE; [20]): 90%; post-emergence activity against SETVI (SETVI [11]): 90%; post-emergence activity against ABUTH (ABUTH; application rate 320 g/ha, treated at the one-leaf stage, rated visually after about 3 weeks vs untreated controls, 100% = the plants have died, 0% = like control plants): 90%; post-emergence activity against ABUTH (ABUTH; [21]): 90%; post-emergence activity against ECHCG (ECHCG [12]; application rate 320 g/ha, Table B2b): 90%; post-emergence activity against ECHCG (ECHCG [12]; [22]): 90%; pre-emergence activity against ALOMY (ALOMY; [23]): 90%; pre-emergence activity against ALOMY (ALOMY; [24]): 90%; post-emergence activity against MATIN (MATIN [13]; [25]): 90%; post-emergence activity against MATIN (MATIN [13]; [26]): 90%; post-emergence activity against POAAN (POAAN [14]; application rate 80 g/ha, Table B7c): 90%; post-emergence activity against POAAN (POAAN [14]; [27]): 90%; post-emergence activity against POAAN (POAAN [14]; [28]): 100%
2 | COCc1nn(C)cc1C(=O)N1CCCC1Cc1cccc(F)c1F (racemic) [Example I-077] | 90% | 90% | 90% | 90% | 90% | 90% | 90% | 100% | 90% | 90% | 100% | 100% | 90% | 100% | 100% | 100% | 90% | 100% | 90% | 90% | pre-emergence activity against AMARE (AMARE; [20]): 90%; post-emergence activity against ABUTH (ABUTH; [21]): 90%; post-emergence activity against ECHCG (ECHCG [12]; [22]): 90%; pre-emergence activity against ALOMY (ALOMY; [23]): 90%; pre-emergence activity against ALOMY (ALOMY; [24]): 90%; post-emergence activity against MATIN (MATIN [13]; [25]): 90%; post-emergence activity against MATIN (MATIN [13]; [26]): 90%; post-emergence activity against POAAN (POAAN [14]; [27]): 90%; post-emergence activity against POAAN (POAAN [14]; [28]): 90%
